Reference: ChEMBL document CHEMBL4340519, “The effects of Arctigenin-Valine ester on chemotherapy-induced myelosuppression in mice” (Bioorg Med Chem, 2019)
Activity calls are given as the source filed them. The rule behind the calls is not given here.

Columns and labels:
Mus musculus [1] = assay: Protection against CTX-induced myelosuppression in BALB/c mouse assessed as effect on HGB level at 10 mg/kg, ip administered daily for 7 days starting from 3 days post-CTX challenge measured 24 hrs post-last dose (reference value: 113.2 +/- 6.66 g/L); type: functional
[2] = Toxicity in BALB/c mouse assessed as behavioral changes at 5 to 10 mg/kg, ip administered daily for 7 days measured during compound dosing; type: organism-based; conditions: in vivo, 168 h
Mus musculus [3] = assay: Protection against CTX-induced myelosuppression in BALB/c mouse assessed as effect on RBC level at 10 mg/kg, ip administered daily for 7 days starting from 3 days post-CTX challenge measured 24 hrs post-last dose (reference value: 8.63 +/- 0.68 10^12/L); type: functional
Mus musculus [4] = assay: Protection against CTX-induced toxicity in BALB/c mouse assessed as restoration of normal body weight at 5 to 10 mg/kg, ip administered daily for 7 days starting from 3 days post-CTX challenge and measured during compound dosing; type: functional, organism-based
[5] = Toxicity in BALB/c mouse assessed as change in body temperature at 5 to 10 mg/kg, ip administered daily for 7 days measured during compound dosing; type: organism-based; conditions: in vivo, 168 h
Mus musculus [6] = assay: Protection against CTX-induced myelosuppression in BALB/c mouse assessed as effect on WBC level at 10 mg/kg, ip administered daily for 7 days starting from 3 days post-CTX challenge measured 24 hrs post-last dose (reference value: 10.34 +/- 1.4 10^9/L); type: functional
Mus musculus [7] = assay: Protection against CTX-induced myelosuppression in BALB/c mouse assessed as upregulation of phosphorylated ERK expression at 5 to 10 mg/kg, ip administered daily for 7 days starting from 3 days post-CTX challenge measured 24 hrs post-last dose by Western blot analysis; type: functional, organism-based
Mus musculus [8] = assay: Protection against CTX-induced myelosuppression in BALB/c mouse assessed as improvement in hematopoiesis by decrease in granulocyte macrophage-colony stimulating factor level at 5 to 10 mg/kg, ip administered daily for 7 days starting from 3 days post-CTX challenge measured 24 hrs post-last dose by ELISA; type: functional, organism-based
Mus musculus [9] = assay: Protection against CTX-induced toxicity in BALB/c mouse assessed as loss of depilation at 5 to 10 mg/kg, ip administered daily for 7 days starting from 3 days post-CTX challenge and measured during compound dosing; type: functional, organism-based
Mus musculus [10] = assay: Protection against CTX-induced myelosuppression in BALB/c mouse assessed as improvement in hematopoiesis by measuring increase in colonies of granulocyte macrophage at 5 to 10 mg/kg, ip administered daily for 7 days starting from 3 days post-CTX challenge measured 24 hrs post-last dose by inverted microscopic method; type: functional, organism-based
Mus musculus [11] = assay: Protection against CTX-induced toxicity in BALB/c mouse assessed as loss of cool skin at 5 to 10 mg/kg, ip administered daily for 7 days starting from 3 days post-CTX challenge and measured during compound dosing; type: functional, organism-based
Mus musculus [12] = assay: Protection against CTX-induced myelosuppression in BALB/c mouse assessed as effect on HGB level at 5 mg/kg, ip administered daily for 7 days starting from 3 days post-CTX challenge measured 24 hrs post-last dose (reference value: 113.2 +/- 6.66 g/L); type: functional
Mus musculus [13] = assay: Protection against CTX-induced myelosuppression in BALB/c mouse assessed as improvement in hematopoiesis by measuring increase in colonies of erythroid at 5 to 10 mg/kg, ip administered daily for 7 days starting from 3 days post-CTX challenge measured 24 hrs post-last dose by inverted microscopic method; type: functional, organism-based
Mus musculus [14] = assay: Protection against CTX-induced myelosuppression in BALB/c mouse assessed as effect on RBC level at 5 mg/kg, ip administered daily for 7 days starting from 3 days post-CTX challenge measured 24 hrs post-last dose (reference value: 8.63 +/- 0.68 10^12/L); type: functional
Mus musculus [15] = assay: Protection against CTX-induced myelosuppression in BALB/c mouse assessed as upregulation of MEK expression at 5 to 10 mg/kg, ip administered daily for 7 days starting from 3 days post-CTX challenge measured 24 hrs post-last dose by Western blot analysis; type: functional, organism-based
Mus musculus [16] = assay: Protection against CTX-induced myelosuppression in BALB/c mouse assessed as change in hematopoietic progenitor cell cycle distribution by increase in accumulation at S-phase at 5 to 10 mg/kg, ip administered daily for 7 days starting from 3 days post-CTX challenge measured 24 hrs post-last dose by propidium iodide staining based flow cytometry; type: functional, organism-based
Mus musculus [17] = assay: Protection against CTX-induced myelosuppression in BALB/c mouse assessed as improvement in hematopoiesis by decrease in erythropoietin level at 5 to 10 mg/kg, ip administered daily for 7 days starting from 3 days post-CTX challenge measured 24 hrs post-last dose by ELISA; type: functional, organism-based
Mus musculus [18] = assay: Protection against CTX-induced myelosuppression in BALB/c mouse assessed as effect on PLT level at 5 mg/kg, ip administered daily for 7 days starting from 3 days post-CTX challenge measured 24 hrs post-last dose (reference value: 628.5 +/- 66.09 10^9/L); type: functional
Mus musculus [19] = assay: Protection against CTX-induced toxicity in BALB/c mouse assessed as loss of hematuria at 5 to 10 mg/kg, ip administered daily for 7 days starting from 3 days post-CTX challenge and measured during compound dosing; type: functional, organism-based
Mus musculus [20] = assay: Protection against CTX-induced toxicity in BALB/c mouse assessed as restoration of normal food intake at 5 to 10 mg/kg, ip administered daily for 7 days starting from 3 days post-CTX challenge and measured during compound dosing; type: functional, organism-based
[21] = Toxicity in BALB/c mouse assessed as change in appetite at 5 to 10 mg/kg, ip administered daily for 7 days measured during compound dosing; type: organism-based; conditions: in vivo, 168 h
Mus musculus [22] = assay: Protection against CTX-induced myelosuppression in BALB/c mouse assessed as change in hematopoietic progenitor cell cycle distribution by decrease in accumulation at G0/G1-phase at 5 to 10 mg/kg, ip administered daily for 7 days starting from 3 days post-CTX challenge measured 24 hrs post-last dose by propidium iodide staining based flow cytometry; type: functional, organism-based
Mus musculus [23] = assay: Protection against CTX-induced myelosuppression in BALB/c mouse assessed as improvement in immunity by measuring spleen index at 5 mg/kg, ip administered daily for 7 days starting from 3 days post-CTX challenge measured 24 hrs post-last dose (reference value: 8.94 +/- […]); type: functional
Mus musculus [24] = assay: Protection against CTX-induced myelosuppression in BALB/c mouse assessed as improvement in hematopoiesis by decrease in thrombopoietin level at 5 to 10 mg/kg, ip administered daily for 7 days starting from 3 days post-CTX challenge measured 24 hrs post-last dose by ELISA; type: functional, organism-based
Mus musculus [25] = assay: Protection against CTX-induced myelosuppression in BALB/c mouse assessed as change in hematopoietic progenitor cell cycle distribution by increase in accumulation at G2/M-phase at 5 to 10 mg/kg, ip administered daily for 7 days starting from 3 days post-CTX challenge measured 24 hrs post-last dose by propidium iodide staining based flow cytometry; type: functional, organism-based
Mus musculus [26] = assay: Protection against CTX-induced myelosuppression in BALB/c mouse assessed as effect on WBC level at 5 mg/kg, ip administered daily for 7 days starting from 3 days post-CTX challenge measured 24 hrs post-last dose (reference value: 10.34 +/- 1.4 10^9/L); type: functional
[27] = Toxicity in BALB/c mouse assessed as effect on appearance of shiny hair at 5 to 10 mg/kg, ip administered daily for 7 days measured during compound dosing; type: organism-based; conditions: in vivo, 168 h
Mus musculus [28] = assay: Protection against CTX-induced myelosuppression in BALB/c mouse assessed as improvement in immunity by measuring spleen index at 10 mg/kg, ip administered daily for 7 days starting from 3 days post-CTX challenge measured 24 hrs post-last dose (reference value: 8.94 +/- […]); type: functional
Mus musculus [29] = assay: Protection against CTX-induced myelosuppression in BALB/c mouse assessed as improvement in hematopoiesis by measuring increase in bone marrow nucleated cells at 5 to 10 mg/kg, ip administered daily for 7 days starting from 3 days post-CTX challenge measured 24 hrs post-last dose by inverted microscopic method; type: functional, organism-based
Mus musculus [30] = assay: Protection against CTX-induced myelosuppression in BALB/c mouse assessed as improvement in hematopoiesis by measuring increase in colonies of megakaryocytes at 5 to 10 mg/kg, ip administered daily for 7 days starting from 3 days post-CTX challenge measured 24 hrs post-last dose by inverted microscopic method; type: functional, organism-based
Mus musculus [31] = assay: Protection against CTX-induced toxicity in BALB/c mouse assessed as loss of diarrhea at 5 to 10 mg/kg, ip administered daily for 7 days starting from 3 days post-CTX challenge and measured during compound dosing; type: functional, organism-based
Mus musculus [32] = assay: Protection against CTX-induced myelosuppression in BALB/c mouse assessed as effect on PLT level at 10 mg/kg, ip administered daily for 7 days starting from 3 days post-CTX challenge measured 24 hrs post-last dose (reference value: 628.5 +/- 66.09 10^9/L); type: functional
Mus musculus [33] = assay: Protection against CTX-induced myelosuppression in BALB/c mouse assessed as improvement in hematopoiesis by measuring increase in burst forming units of erythroid at 5 to 10 mg/kg, ip administered daily for 7 days starting from 3 days post-CTX challenge measured 24 hrs post-last dose by inverted microscopic method; type: functional, organism-based

Structure (SMILES): COc1ccc(C[C@H]2COC(=O)[C@@H]2Cc2ccc(OC(=O)[C@@H](N)C(C)C)c(OC)c2)cc1OC
- Activity (Mus musculus [1]): 125.5 g/L
- Activity [2]: Non-Toxic
- Activity (Mus musculus [3]): 9.24 ×10¹² /L
- Activity (Mus musculus [4]): Active
- Activity [5]: Non-Toxic
- Activity (Mus musculus [6]): 8.65 ×10⁹ /L
- Activity (Mus musculus [7]): Active
- Activity (Mus musculus [8]): Active
- Activity (Mus musculus [9]): Active
- Activity (Mus musculus [10]): Active
- Activity (Mus musculus [11]): Active
- Activity (Mus musculus [12]): 120 g/L
- Activity (Mus musculus [13]): Active
- Activity (Mus musculus [14]): 8.8 ×10¹² /L
- Activity (Mus musculus [15]): Active
- Activity (Mus musculus [16]): Active
- Activity (Mus musculus [17]): Active
- Activity (Mus musculus [18]): 796 ×10⁹ /L
- Activity (Mus musculus [19]): Active
- Activity (Mus musculus [20]): Active
- Activity [21]: Non-Toxic
- Activity (Mus musculus [22]): Active
- Activity index (Mus musculus [23]): 8.66 mg/g
- Activity (Mus musculus [24]): Active
- Activity (Mus musculus [25]): Active
- Activity (Mus musculus [26]): 9.29 ×10⁹ /L
- Activity [27]: Non-Toxic
- Activity index (Mus musculus [28]): 8.47 mg/g
- Activity (Mus musculus [29]): Active
- Activity (Mus musculus [30]): Active
- Activity (Mus musculus [31]): Active
- Activity (Mus musculus [32]): 848 ×10⁹ /L
- Activity (Mus musculus [33]): Active
